Experimental data as given in patent publication EP3952873B1 (priority 2019, dated 2020).

Assay type: in vitro ADME, mouse
Details: during the metabolic stability study
Protocol: Metabolic stability analysis was performed on a Bruker Avance Ultra High Performance Liquid Chromatography (UHPLC) (Bruker Daltonik, Bremen, Germany) equipped with a CTC-PAL-xt autosampler with cooled sample compartments (10 °C) and a column oven held at 40 °C. The UHPLC eluate was directed to a Bruker Evoq Elite triple quad-ropole MS equipped with a heated electrospray ionization source operated in positive ionization mode. Separation of 15 µL sample was obtained using a Phenomenex (Phenomenex, Torrance, CA, USA) Kinetex XB-C18 column (50 mm × 2.1 mm i.d., 1.7 µm particle size) equipped with a guard column. The analytes were separated using a solvent system consisting of water/acetonitrile (95:5, v/v) (eluent A) and water/acetonitrile (5:95, v/v) (eluent B); both acidified with 0.1% formic acid. The eluent flow rate was maintained at 0.4 mL/min with the following gradient elution profile: 0 min: 0% B; 5 min: 100% B; 6 min: 100% B, followed by three min equilibration at 0% B. Two ion transitions were monitored for all analytes and internal standard.
The mouse liver microsome assay was performed by transferring 25 µL of a 20 µM solution of the test compound (0.5% DMSO), dissolved in potassium phosphate monobasic buffer (pH 7.4) containing 3 mM MgCl2, to 9 wells in a microtiter plate. To each well, […] of a 0.5 mg/mL mouse liver (Sigma Aldrich) in buffer was added, and the microtiter plate were pre-incubated for 5 min at 37 °C in a plate shaker at 600 rpm. After pre-incubation, 50 µL 37 °C NADPH regenerating system, consisting of 2 mM NADP+, 10mM glucose-6-phosphate, and 2 U/mL glucose-6-phosphate dehydrogenase dissolved in buffer, was added to start the assay. In triplicates, immediately after adding the NADPH solution, 75 µL was transferred to an Eppendorf tube, containing […] ice-cold acetonitrile with 400 ng/mL internal standard (7). Similarly, samples were prepared after 30 min and 60 min incubation at 37 °C. The samples were vortexed for 30 seconds and centrifuged at 16,000 × g for 10 minutes before analyzing the supernatant. The individual analyte responses were normalized to the internal standard. Diazepam was used as positive control.
The mouse […] assay was performed by transferring 75 µL of a 10 µM solution of the test compound (0.5% DMSO), dissolved in PBS buffer (pH 7.4), to 9 wells in a microtiter plate. To each well, 75 µL mouse plasma, harvested from in-house mice into K2-EDTA tubes and centrifuged at 1,600 × g, was added. […]
The metabolic stabilities of JON-11 and the prodrugs 1a, 8-12, 19 and 20 were determined in vitro in rat plasma and rat liver microsomes. […] The corresponding loss of prodrug compounds and formation of parent drug JON-11 was determined by UHPLC-MS.

O=C(O)Cc1cn2nc(-c3ccc(Cl)cc3)ccc2n1 [JON-11, 2-(6-(4-Chlorophenyl)imidazo[1,2-b]pyridazin-2-yl)acetic acid]
Chemical or enzymatic degradation: not observed
